Read-outs that look alike come from different tables or passages of the source.
Tests used:
Molt-4 cells [1] = assay: Molt-4 cell killing activity test (CCK-8); type: cell-based; conditions: for EC50: Homo sapiens
Experimental: (§1) Molt-4 cells were cultured and amplified in 10 cm dishes by using RPMI-1640 medium supplemented with 10% fetal bovine serum. Actively growing and healthy Molt-4 cells were collected, centrifuged at 1000 rpm for 5 minutes, and after removing the supernatant, the cells were resuspended in fresh RPMI-1640 medium containing 10% fetal bovine serum. Cell counting was then performed. The cell density was adjusted to 120,000 cells per milliliter, and 100 µL of the cell suspension was added to each well of a 96-well transparent cell culture plate. It was noted that the edge wells of the 96-well plate were not used for testing; and 300 µL of PBS alone was added to these wells to reduce medium evaporation.
The small molecule compounds to be tested for activity were prepared. A series of small molecule concentration gradients (0.001, 0.003, 0.01, 0.03, 0.1, 0.3, 1, and 3 µM) were pre-set, and a series of 2× drug dilutions for the above concentrations were prepared in RPMI-1640 medium containing 10% fetal bovine serum. 100 µL of the above medium containing the gradient concentrations of the drug was added to each well of a 96-well plate pre-seeded with cells, so that the final drug concentration in each well was the pre-set concentration gradient. Three replicate wells were used for each tested drug concentration. The 96-well plate was placed back in a 37°C incubator, and the cell viability was measured after three days.
The plate was taken out three days after adding the drugs, and 100 µL of pre-prepared CCK-8 working solution was added to each well. The CCK-8 working solution was obtained through diluting a CCK-8 stock solution (C0041, Beyotime) by 10-fold volumn with a serum-free RPMI-1640 medium. The 96-well plates with the added CCK-8 working solution were placed back in the 37°C incubator and incubated for 0.5-2 hours. The plates were then taken out, and the absorbance value (OD value) of each well was measured at a wavelength of 450 nm, and the cell viability in each experimental group was calculated according to the following formula: Relative cell viability (%) = […] × 100%.

Molt-4 cells [2] = assay: Detection of E3 enzyme-dependence: Molt-4 cell killing with or without pomalidomide (CCK-8); type: cell-based; conditions: 10 µM pomalidomide, Figure 2
Experimental: as §1, with “Actively” for “Molt-4 cells were cultured and amplified in 10 cm dishes by using RPMI-1640 medium supplemented with 10% fetal bovine serum. Actively”, “testing,” for “testing;”
Molt-4 cells were plated in duplicate according to the number of the tested small molecules, so as to test the effects with and without the addition of pomalidomide (a competitive ligand specific for E3 ligase), in which one half of the parallel cells was added 10 µM pomalidomide. A series of small molecule concentration gradients (0.001, 0.003, 0.01, 0.03, 0.1, 0.3, 1, and 3 µM) were pre-set, and a series of 2× drug dilutions for the above concentrated were prepared in DMEM medium containing 10% fetal bovine serum. 100 µL of the above DMEM medium containing the gradient concentrations of the drug was added to 96-well plates that have been pre-plated with cells, so that the final drug concentration in each well was the pre-set series of concentrations respectively. Three replicate wells were used for each test drug concentration. The 96-well plates were placed back in a 37°C incubator, and the cell viability was detected after three days.
Cell viability after drug treatment was detected by using the CCK-8 method: three days after adding the drugs, the plates were taken out, and the supernatant was discarded. Then, 100 µL of pre-prepared CCK-8 working solution was added to each well. The CCK-8 working solution was obtained through diluting a CCK-8 stock solution (C0041, Beyotime) by 10-fold volumn with a serum-free DMEM culture medium. The 96-well plates with the added CCK-8 working solution were placed back in the 37°C incubator and incubated for 0.5-2 hours. The plates were then taken out, and the absorbance value (OD value) of each well was measured at a wavelength of 450 nm. The cell viability in each experimental group was calculated according to the following formula: Relative cell viability (%) = (Blank control group - Experimental group) / Blank control group × 100%.

HEF cells = assay: Senescent cell killing activity test, HEF cell model (CCK-8); type: cell-based, human; conditions: higher concentration (25 µM)
Experimental: To avoid replication of the induced senescent cells, low-passage proliferating HEF cells (<10 passages), MRC5 cells (<6 passages), and BJ cells (<10 passages) were used as normal controls. For chemical drug induced senescence, HEF cells were treated with 10 µM etoposide (Selleck, S1225) for 36-48 hours, MRC5 cells were treated with 5 µM bleomycin (Selleck, S1225) for 72 hours, and BJ cells were treated with 10 µg/mL bleomycin for 72 hours. Three days after the treatment, the cells were subcultured in fresh culture medium at a 1:3 ratio for 72 hours before further analysis and use.
Non-senescent and induced-senescent HEF cells, non-senescent and induced-senescent MRC5 cells, and non-senescent and induced-senescent BJ cells were respectively digested with trypsin, and centrifuged at 1000 rpm for 5 minutes. Then, the supernatant was removed, and the cells were resuspended in fresh DMEM culture medium containing 10% fetal bovine serum for counting. The cell density was adjusted so that the non-senescent cell density was 4000 cells/100 µL and the senescent cell density was 7000 cells/100 µL. 100 µL of the cell suspension was added to each well of a 96-well transparent cell culture plate. It was noted that the edge wells of the 96-well plate were not used as testing wells, and 300 µL of PBS alone was added to these wells to reduce evaporation of the culture medium. The 96-well plates with the well-plated cells were placed back in a 37°C incubator for overnight culture until the cells adhered. On the next day, the small molecule compounds to be tested were prepared and added after the cells had adhered.
A series of small molecule concentration gradients (0.01, 0.03, 0.1, 0.3, 1, 3, 10, and 25 µM) were pre-set, and a series of 2× drug dilutions for the above concentrations were prepared in DMEM culture medium containing 10% fetal bovine serum. 100 µL of the above DMEM culture medium containing the gradient concentrations of the drug was added to each well of the 96-well plate that had been well-plated with cells, so that the final drug concentration in each well was the pre-set series of concentrations. Three replicate wells were used for each test drug concentration. The 96-well plates were placed back in a 37°C incubator, and cell viability was measured after three days.
Three days after adding the drug, the plates were taken out, and the supernatant was discarded. 100 µL of pre-prepared CCK-8 working solution was added to each well. The CCK-8 working solution was obtained through diluting a CCK-8 stock solution (C0041, Beyotime) with a serum-free DMEM culture medium by 10-fold volumn. The 96-well plates containing the CCK-8 working solution were placed back in the 37°C incubator and incubated for 0.5-2 hours. The plates were then taken out, and the absorbance value (OD value) of each well was measured at a wavelength of 450 nm. The cell viability in each experimental group was calculated according to the following formula: Relative cell viability (%) = (Blank control group - Experimental group) / Blank control group × 100%.

Bcl-xL protein = target: T1, Bcl-xL protein (Homo sapiens, UniProt Q07817); assay: Degradation experiment of Bcl-xL target protein (Western blot in Molt-4 cells); type: cell-based; conditions: 100 nM, 0, 2, 6, 16 h, GAPDH internal control, Figure 4
T1 construct: host or cells: Molt-4 cells
T1 sequence (Q07817 whole entry): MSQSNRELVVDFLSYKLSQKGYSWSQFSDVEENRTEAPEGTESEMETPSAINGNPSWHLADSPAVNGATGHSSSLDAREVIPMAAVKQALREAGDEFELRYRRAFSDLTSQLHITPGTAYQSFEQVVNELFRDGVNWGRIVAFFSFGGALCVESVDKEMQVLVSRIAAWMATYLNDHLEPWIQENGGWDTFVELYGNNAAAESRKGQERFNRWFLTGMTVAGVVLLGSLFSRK
Experimental: Actively growing and healthy Molt-4 cells were subcultured into a fresh RPMI-1640 medium containing 10% fetal bovine serum, and each PROTAC molecule was added thereto at a final concentration of 100 nM. After drug treatment for the specified times (0, 2, 6, and 16 hours), the cells were collected, the supernatant was discarded by centrifugation, and the cells were washed twice with pre-cooled PBS buffer. Total protein was extracted with a lysis buffer (Servicebio, G2002-100ML), and the protein concentration was normalized by using a BCA protein quantification kit (Servicebio, G2026). Protein samples were mixed with a protein-loading buffer and incubated at 95°C for 5 minutes. Western blotting experiments were performed by using the following antibodies: Bcl-xL (Abcam, catalog number ab32370), diluted at 1:500; GAPDH antibody (Servicebio, catalog number GB15004), diluted at 1:1000; and horseradish peroxidase-conjugated goat anti-rabbit secondary antibody (Servicebio, catalog number GB23303), diluted at 1:5000.

[3] = Metabolic stability assay in liver microsomes (mouse); type: in vitro ADME
Experimental: (§2) The metabolic reaction of compounds in liver microsome was performed in a system with a total volume of 400 µL, and the following steps below were sequentially performed for the reaction and detection: 1) 200 µL of phosphate buffer (200 mM), 106 µL of sterile ultrapure water, and 40 µL of magnesium chloride solution (50 mM) were added to each detection tube to prepare a reaction working solution. 2) Two reaction systems with or without adding NADPH were prepared for each compound to be tested. For the reaction system with adding NADPH: 10 µL of liver microsomes (20 mg/mL) and 40 µL of NADPH (10 mM) were added to the above working solution; for the reaction system without adding NADPH: 10 µL of liver microsomes (20 mg/mL) and 40 µL of sterile ultrapure water were added to the above working solution. The final concentration of liver microsomes in both reaction systems was 0.5 mg/mL. 3) 4 µL of the compound to be tested ([…]) was added to each reaction tube, resulting in a final concentration of 1 µM for the compound in the reaction system. The detection tubes were placed at 37°C for reaction. 4) 50 µL samples were taken from each detection tube at 0, 15, 30, 45, and 60 minutes after adding the compound. The reaction was terminated by adding cold acetonitrile containing IS (100 nM alprazolam, 200 nM labetalol, 200 nM caffeine, and 2 µM ketoprofen) in a 4× volume. The samples were centrifuged at 3220 g for 40 minutes, 100 µL of the supernatant was mixed with 100 µL of ultrapure water, and a sample was taken for LC-MS/MS analysis.
(§3) Calculation of in vitro liver microsomal metabolic half-life and in vitro metabolic intrinsic clearance rate: The LC-MS detection results were analyzed to obtain the percentage of the remaining amount of the tested compound relative to the initial amount at each time point. The natural logarithm of the remaining percentage was linearly fitted against the incubation time.

[4] = Metabolic stability assay in liver microsomes (human); type: in vitro ADME
Experimental: as §2, §3

[5] = 72 h, Molt-4 cells, three days, CCK-8, read-out: EC50 (Molt-4)
[6] = mouse liver microsomes 0.5 mg/mL, 1 µM compound, 37°C
[7] = human liver microsomes 0.5 mg/mL, 1 µM compound, 37°C

## CC1(C)CCC(c2ccc(Cl)cc2)=C(CN2CCN(c3ccc(C(=O)NS(=O)(=O)c4ccc(N[C@H](CCN5CCOCC5)CSc5ccccc5)c(S(=O)(=O)C(F)(F)F)c4)cc3)CC2)C1 [ABT-263, reference compound]
Molt-4 cells [1]; [5]
  EC50: 100 to 1000 nM
Molt-4 cells [2]
  cell killing activity after addition of pomalidomide (+poma) compared to without (-poma): only slightly affected
HEF cells
  toxicity on normal non-senescent HEF cells: toxic killing effects on normal non-senescent HEF cells

## Cc1ncsc1-c1ccc([C@H](C)NC(=O)[C@@H]2C[C@@H](O)CN2C(=O)[C@@H](NC(=O)CN2CCN(CC#Cc3ccc(OCCCc4ccc(N5CCc6cccc(C(=O)Nc7nc8ccccc8s7)c6C5)nc4C(=O)O)c(F)c3)CC2)C(C)(C)C)cc1 [APH1]
Molt-4 cells [1]; [5]
  EC50: 10 to 100 nM
Bcl-xL protein
  degradation of the Bcl-xL protein: had the ability to degrade the Bcl-xL protein

## [2H]C1([2H])CN(c2ccc(-c3cnn(CC45CC6CC(CC(C6)C4)C5)c3C)c(C(=O)O)n2)Cc2c(C(=O)Nc3nc4ccccc4s3)cccc21 [Compound A13D-5]
[3]; [6]
  Clint: 17.61 µL/min/mg protein
  T1/2: 1.312 h
[4]; [7]
  Clint: 53.56 µL/min/mg protein
  T1/2: 0.4313 h

## [2H]C1([2H])Cc2cccc(C(=O)Nc3nc4ccccc4s3)c2CN1c1ccc(-c2cnn(CC34CC5CC(CC(C5)C3)C4)c2C)c(C(=O)O)n1 [Compound A13D-6]
[3]; [6]
  Clint: 14.07 µL/min/mg protein
  T1/2: 1.642 h
[4]; human and mouse liver microsomes, compared with A-1331852 and molecules deuterated at other sites
  metabolic stability in liver microsomes, in words: better metabolic stability in liver microsomes
[4]; [7]
  Clint: 50.18 µL/min/mg protein
  T1/2: 0.4603 h

## Cc1c(-c2ccc(N3CCc4cccc(C(=O)Nc5nc6ccccc6s5)c4C3)nc2C(=O)O)cnn1CC12CC3CC(CC(C3)C1)C2 [Compound A1331852, reference compound]
Molt-4 cells [2]
  cell killing activity after addition of pomalidomide (+poma) compared to without (-poma): only slightly affected

## O=C(Nc1nc2ccccc2s1)c1cccc2c1CN(c1ccc(CCCOc3ccc(C#CCN4CCNCC4)cc3F)c(C(=O)O)n1)CC2 [Compound C1]
Molt-4 cells [1]; Figure 1, 0.001-3 µM, comparison with control molecules
  killing Molt-4 cells at different concentrations (Figure 1), in words: higher percentage for killing Molt-4 cells than those of ABT-263 and DT-2216, but lower than those of A-1331852 and A-1155463
Molt-4 cells [1]; [5]
  EC50: 10 to 100 nM
Molt-4 cells [1]; Bcl-xL-positive Molt-4 cells, read-out: cellular activity / killing activity (Molt-4 cells)
  EC50: 10 to 100 nM
Molt-4 cells [1]; comparison with C1, the targeting ligand or control molecules
  activity for killing Molt-4 cells, in words: higher than that of the commercially available control molecule ABT-263, but lower than those of A-1331852 and A-1155463
[3]; [6]
  Clint: 4.90 µL/min/mg protein
  half-life at 1 µM: 4.71 h
[3]; mouse liver microsomes, read-out: clearance rate (metabolic clearance rate)
  microsomal CLint at 1 µM: 4.9 µL/min/mg
[4]; [7]
  Clint: 7.36 µL/min/mg protein
  half-life at 1 µM: 3.14 h
[4]; human liver microsomes, read-out: clearance rate (metabolic clearance rate)
  microsomal CLint at 1 µM: 7.36 µL/min/mg
Molt-4 cells [2]
  cell killing activity after addition of pomalidomide (+poma) compared to without (-poma): only slightly affected

## Cc1ncsc1-c1ccc([C@H](C)NC(=O)[C@@H]2C[C@@H](O)CN2C(=O)[C@@H](NC(=O)CCCCCC(=O)N2CCN(CC[C@H](CSc3ccccc3)Nc3ccc(S(=O)(=O)NC(=O)c4ccc(N5CCN(CC6=C(c7ccc(Cl)cc7)CCC(C)(C)C6)CC5)cc4)cc3S(=O)(=O)C(F)(F)F)CC2)C(C)(C)C)cc1 [DT-2216, reference compound]
Molt-4 cells [2]
  cell killing activity after addition of pomalidomide (+poma) compared to without (-poma): almost unaffected

From patent EP4759810A1, “PROTAC TARGETING BCL-XL PROTEIN AND USE THEREOF” (BEIJING SUNCELL BIO-MEDICAL CO., LTD., priority 2023, dated 2025)
